Calls of active or inactive are those of the source.
How the values were obtained:
[1] = Trypanosoma cruzi growth suppression in host cells – NIH3T3 host cells, beta-gal luminescence, confirmation (AID 2044); assay type: functional, cell-based;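 further: intracellular parasites grown in NIH/3T3 mouse fibroblasts as host cells; luminescent beta-galactosidase reporter signal from transgenic T. cruzi replicating inside host cells; inhibitors lower the luminescence signal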
[2] = NIH3T3 cell viability loss – ATP luminescence, mouse fibroblasts, counter-screen, dose response (AID 2010); assay type: functional, cell-based;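 further: cells exposed to compound for about 90 hours before reading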
Saccharomyces cerevisiae = assay: S. cerevisiae Caspase-1/ASC signal blockers IC50, NALP1 inhibitor project selectivity test (AID 488863); assay type: functional, organism-based
[3] = molecular target: T1, NACHT, LRR and PYD domains-containing protein 1 (Homo sapiens, UniProt Q9C000); assay: NALP1 inhibitors in yeast, dose response, luminescent (AID 488860); assay type: functional
T1 sequence (Q9C000 whole entry): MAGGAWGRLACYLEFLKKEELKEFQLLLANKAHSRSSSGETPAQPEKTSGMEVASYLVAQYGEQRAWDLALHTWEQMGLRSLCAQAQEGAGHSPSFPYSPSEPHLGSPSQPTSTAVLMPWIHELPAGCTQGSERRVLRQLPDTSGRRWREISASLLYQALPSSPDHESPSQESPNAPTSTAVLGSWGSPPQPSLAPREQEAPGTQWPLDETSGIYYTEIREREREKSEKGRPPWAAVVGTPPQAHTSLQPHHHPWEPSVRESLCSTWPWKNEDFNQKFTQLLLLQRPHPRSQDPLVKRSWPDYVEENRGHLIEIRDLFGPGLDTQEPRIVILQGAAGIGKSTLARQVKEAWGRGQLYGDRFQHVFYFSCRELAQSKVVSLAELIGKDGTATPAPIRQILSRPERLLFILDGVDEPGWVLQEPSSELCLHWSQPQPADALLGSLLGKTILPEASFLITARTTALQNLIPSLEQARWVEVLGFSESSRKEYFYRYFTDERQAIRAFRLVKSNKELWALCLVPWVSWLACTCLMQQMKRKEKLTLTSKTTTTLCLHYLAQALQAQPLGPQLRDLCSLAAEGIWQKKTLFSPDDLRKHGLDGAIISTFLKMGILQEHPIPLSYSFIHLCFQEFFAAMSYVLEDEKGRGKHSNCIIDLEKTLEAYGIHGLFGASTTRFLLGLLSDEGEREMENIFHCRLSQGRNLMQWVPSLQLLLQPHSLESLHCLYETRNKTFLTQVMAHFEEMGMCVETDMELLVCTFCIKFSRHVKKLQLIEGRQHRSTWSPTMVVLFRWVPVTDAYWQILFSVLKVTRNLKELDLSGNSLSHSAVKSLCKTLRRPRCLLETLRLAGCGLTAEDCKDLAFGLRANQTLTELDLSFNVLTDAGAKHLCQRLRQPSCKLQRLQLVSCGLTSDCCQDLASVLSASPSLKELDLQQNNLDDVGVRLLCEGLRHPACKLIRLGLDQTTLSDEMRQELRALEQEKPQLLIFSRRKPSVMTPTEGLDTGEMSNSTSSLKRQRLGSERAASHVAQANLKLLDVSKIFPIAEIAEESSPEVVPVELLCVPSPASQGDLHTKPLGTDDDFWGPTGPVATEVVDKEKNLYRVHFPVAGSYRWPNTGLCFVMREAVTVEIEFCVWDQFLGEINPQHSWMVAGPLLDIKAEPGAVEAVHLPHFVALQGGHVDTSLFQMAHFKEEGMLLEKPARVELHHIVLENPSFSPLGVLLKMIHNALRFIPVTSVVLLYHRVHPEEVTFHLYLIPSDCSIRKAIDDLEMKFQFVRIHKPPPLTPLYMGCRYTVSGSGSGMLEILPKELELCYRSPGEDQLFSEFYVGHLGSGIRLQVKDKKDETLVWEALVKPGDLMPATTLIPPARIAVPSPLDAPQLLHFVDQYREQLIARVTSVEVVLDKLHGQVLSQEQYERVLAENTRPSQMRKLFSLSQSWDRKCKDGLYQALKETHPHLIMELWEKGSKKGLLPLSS

[4] = molecular target: T2, G-protein coupled receptor 55 (Homo sapiens, UniProt Q9Y2T6); assay: selective activators of receptor GPR55 – imaging, U2OS cells, beta-arrestin-GFP redistribution, primary screen (AID 1961); assay type: functional
fMet-Leu-Phe receptor = molecular target: T3, fMet-Leu-Phe receptor (Homo sapiens, UniProt P21462); assay: formyl peptide receptor binders – dose response (AID 519); assay type: functional
T3 sequence (P21462 whole entry): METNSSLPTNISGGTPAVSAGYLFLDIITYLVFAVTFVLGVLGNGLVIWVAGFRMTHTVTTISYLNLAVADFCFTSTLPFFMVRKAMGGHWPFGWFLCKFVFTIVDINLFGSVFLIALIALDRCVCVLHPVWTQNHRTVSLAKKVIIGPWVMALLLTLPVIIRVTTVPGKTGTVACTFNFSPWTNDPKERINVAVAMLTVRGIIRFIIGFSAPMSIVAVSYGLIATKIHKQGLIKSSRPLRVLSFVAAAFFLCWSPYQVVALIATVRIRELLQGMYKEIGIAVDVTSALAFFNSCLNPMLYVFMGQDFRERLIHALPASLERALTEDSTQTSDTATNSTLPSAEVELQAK

Cytochrome P450 2D6 = Cytochrome P450 2D6 (Homo sapiens, UniProt P10635);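 further: CYP2D6 member of a cytochrome P450 panel assay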
Cytochrome P450 1A2 = molecular target: T4, Cytochrome P450 1A2 (Homo sapiens, UniProt P05177);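 further: PubChem cytochrome P450 panel assay, CYP1A2 panel member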
T4 sequence (P05177 whole entry): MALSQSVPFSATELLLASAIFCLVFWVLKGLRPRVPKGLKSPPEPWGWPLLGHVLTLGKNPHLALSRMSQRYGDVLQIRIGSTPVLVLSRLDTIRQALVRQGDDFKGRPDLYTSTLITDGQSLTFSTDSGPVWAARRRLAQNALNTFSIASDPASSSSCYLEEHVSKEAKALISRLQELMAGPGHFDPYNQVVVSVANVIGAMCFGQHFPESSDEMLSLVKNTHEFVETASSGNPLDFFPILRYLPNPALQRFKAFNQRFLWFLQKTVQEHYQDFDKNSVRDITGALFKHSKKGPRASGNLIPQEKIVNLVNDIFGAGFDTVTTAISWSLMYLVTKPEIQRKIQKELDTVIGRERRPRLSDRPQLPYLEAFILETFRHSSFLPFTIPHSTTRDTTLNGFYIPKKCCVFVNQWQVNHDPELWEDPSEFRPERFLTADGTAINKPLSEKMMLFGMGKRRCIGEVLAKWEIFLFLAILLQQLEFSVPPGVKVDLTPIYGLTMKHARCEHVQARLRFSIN

[5] = molecular target: Glyceraldehyde-3-phosphate dehydrogenase (Homo sapiens, UniProt P04406)
[6] = molecular target: Voltage-dependent T-type calcium channel subunit alpha-1H (Homo sapiens, UniProt O95180); assay type: functional;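 further: channel activity triggered by adding a high calcium stimulation buffer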
[7] = molecular target: T2, G-protein coupled receptor 55; assay: inhibition of LPI-stimulated GPR55 beta-arrestin translocation – imaging, U2OS, beta-arrestin-GFP, LPI agonist, primary screen (AID 2013); assay type: functional;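 further: antagonist potency measured as reduced agonist-driven arrestin aggregation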
[8] = luciferase reporter signal suppression in cells – H4 neuroglioma cells, luminescence, dose response (AID 1990); assay type: functional, cell-based
BJ [9] = assay: BJ-TERT fibroblast viability loss – cell-based, RAS-independent, luminescence, dose response (AID 1933); assay type: functional; settings: Homo sapiens
[10] = Luminescence Cell-Based Dose Response HTS to Identify Inhibitors of 5'UTR Stem-Loop Driven Prion Protein mRNA Translation in H4 Neuroglioblastoma Cells. [Related pubchem assays: 1827 (Project Summary), 1813 (Primary HTS)]; assay type: functional
[11] = alpha-synuclein stem-loop luciferase translation blockers – H4 neuroglioma cells, luminescence, confirmation (AID 1988); assay type: functional, cell-based
BJ [12] = assay: cells; assay type: functional, cell-based; settings: Homo sapiens
BJ [13] = assay: BJ-TERT-LT-ST fibroblast viability loss – cell-based, RAS-independent, luminescence, dose response (AID 1935); assay type: functional; settings: Homo sapiens;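 further: BJ fibroblasts immortalized with TERT plus LT and ST oncogenes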
[14] = DRD fibroblast viability loss – cell-based, non-viral oncogenic, luminescence, dose response (AID 1934); assay type: functional; settings: Homo sapiens
Vero [15] = assay: cells; assay type: functional, cell-based; settings: Chlorocebus sabaeus
Vero [16] = assay: cells; assay type: functional; settings: Chlorocebus sabaeus
CAAX prenyl protease 2 = molecular target: T5, CAAX prenyl protease 2 (Saccharomyces cerevisiae S288c, UniProt Q03530); assay type: biochemical
T5 sequence (Q03530 whole entry): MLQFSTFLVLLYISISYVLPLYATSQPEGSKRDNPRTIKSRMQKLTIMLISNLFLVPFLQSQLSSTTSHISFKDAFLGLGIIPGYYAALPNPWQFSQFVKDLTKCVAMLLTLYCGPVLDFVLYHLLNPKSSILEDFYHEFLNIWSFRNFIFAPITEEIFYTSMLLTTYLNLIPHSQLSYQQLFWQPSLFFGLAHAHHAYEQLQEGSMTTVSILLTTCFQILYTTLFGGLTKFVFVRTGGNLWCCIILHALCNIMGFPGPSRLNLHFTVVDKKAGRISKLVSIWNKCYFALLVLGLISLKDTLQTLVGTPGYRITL

Beta-galactosidase = Beta-galactosidase (Escherichia coli, UniProt Q8VNN2); assay: PubChem AID 485352; assay type: functional
[17] = molecular target: T6, Type-1 angiotensin II receptor (Homo sapiens, UniProt P30556); assay: antagonism of angiotensin II type 1 receptor – cell-based, uHTS hits, selectivity assay for APJ receptor antagonist project, dose response (AID 463214); assay type: functional;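 further: antagonist potency against angiotensin II stimulated AT1 response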
T6 sequence (P30556 whole entry): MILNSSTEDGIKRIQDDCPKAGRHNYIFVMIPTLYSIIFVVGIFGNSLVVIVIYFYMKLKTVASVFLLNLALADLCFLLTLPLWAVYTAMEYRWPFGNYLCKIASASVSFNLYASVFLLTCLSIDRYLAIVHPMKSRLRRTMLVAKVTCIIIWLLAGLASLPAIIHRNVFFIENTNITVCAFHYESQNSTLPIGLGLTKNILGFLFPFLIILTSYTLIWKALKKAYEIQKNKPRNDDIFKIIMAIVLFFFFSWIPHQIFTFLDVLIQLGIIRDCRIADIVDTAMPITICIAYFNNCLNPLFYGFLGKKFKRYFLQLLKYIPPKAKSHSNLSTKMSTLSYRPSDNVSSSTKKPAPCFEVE

Sequence of Voltage-dependent T-type calcium channel subunit alpha-1H (O95180 whole entry): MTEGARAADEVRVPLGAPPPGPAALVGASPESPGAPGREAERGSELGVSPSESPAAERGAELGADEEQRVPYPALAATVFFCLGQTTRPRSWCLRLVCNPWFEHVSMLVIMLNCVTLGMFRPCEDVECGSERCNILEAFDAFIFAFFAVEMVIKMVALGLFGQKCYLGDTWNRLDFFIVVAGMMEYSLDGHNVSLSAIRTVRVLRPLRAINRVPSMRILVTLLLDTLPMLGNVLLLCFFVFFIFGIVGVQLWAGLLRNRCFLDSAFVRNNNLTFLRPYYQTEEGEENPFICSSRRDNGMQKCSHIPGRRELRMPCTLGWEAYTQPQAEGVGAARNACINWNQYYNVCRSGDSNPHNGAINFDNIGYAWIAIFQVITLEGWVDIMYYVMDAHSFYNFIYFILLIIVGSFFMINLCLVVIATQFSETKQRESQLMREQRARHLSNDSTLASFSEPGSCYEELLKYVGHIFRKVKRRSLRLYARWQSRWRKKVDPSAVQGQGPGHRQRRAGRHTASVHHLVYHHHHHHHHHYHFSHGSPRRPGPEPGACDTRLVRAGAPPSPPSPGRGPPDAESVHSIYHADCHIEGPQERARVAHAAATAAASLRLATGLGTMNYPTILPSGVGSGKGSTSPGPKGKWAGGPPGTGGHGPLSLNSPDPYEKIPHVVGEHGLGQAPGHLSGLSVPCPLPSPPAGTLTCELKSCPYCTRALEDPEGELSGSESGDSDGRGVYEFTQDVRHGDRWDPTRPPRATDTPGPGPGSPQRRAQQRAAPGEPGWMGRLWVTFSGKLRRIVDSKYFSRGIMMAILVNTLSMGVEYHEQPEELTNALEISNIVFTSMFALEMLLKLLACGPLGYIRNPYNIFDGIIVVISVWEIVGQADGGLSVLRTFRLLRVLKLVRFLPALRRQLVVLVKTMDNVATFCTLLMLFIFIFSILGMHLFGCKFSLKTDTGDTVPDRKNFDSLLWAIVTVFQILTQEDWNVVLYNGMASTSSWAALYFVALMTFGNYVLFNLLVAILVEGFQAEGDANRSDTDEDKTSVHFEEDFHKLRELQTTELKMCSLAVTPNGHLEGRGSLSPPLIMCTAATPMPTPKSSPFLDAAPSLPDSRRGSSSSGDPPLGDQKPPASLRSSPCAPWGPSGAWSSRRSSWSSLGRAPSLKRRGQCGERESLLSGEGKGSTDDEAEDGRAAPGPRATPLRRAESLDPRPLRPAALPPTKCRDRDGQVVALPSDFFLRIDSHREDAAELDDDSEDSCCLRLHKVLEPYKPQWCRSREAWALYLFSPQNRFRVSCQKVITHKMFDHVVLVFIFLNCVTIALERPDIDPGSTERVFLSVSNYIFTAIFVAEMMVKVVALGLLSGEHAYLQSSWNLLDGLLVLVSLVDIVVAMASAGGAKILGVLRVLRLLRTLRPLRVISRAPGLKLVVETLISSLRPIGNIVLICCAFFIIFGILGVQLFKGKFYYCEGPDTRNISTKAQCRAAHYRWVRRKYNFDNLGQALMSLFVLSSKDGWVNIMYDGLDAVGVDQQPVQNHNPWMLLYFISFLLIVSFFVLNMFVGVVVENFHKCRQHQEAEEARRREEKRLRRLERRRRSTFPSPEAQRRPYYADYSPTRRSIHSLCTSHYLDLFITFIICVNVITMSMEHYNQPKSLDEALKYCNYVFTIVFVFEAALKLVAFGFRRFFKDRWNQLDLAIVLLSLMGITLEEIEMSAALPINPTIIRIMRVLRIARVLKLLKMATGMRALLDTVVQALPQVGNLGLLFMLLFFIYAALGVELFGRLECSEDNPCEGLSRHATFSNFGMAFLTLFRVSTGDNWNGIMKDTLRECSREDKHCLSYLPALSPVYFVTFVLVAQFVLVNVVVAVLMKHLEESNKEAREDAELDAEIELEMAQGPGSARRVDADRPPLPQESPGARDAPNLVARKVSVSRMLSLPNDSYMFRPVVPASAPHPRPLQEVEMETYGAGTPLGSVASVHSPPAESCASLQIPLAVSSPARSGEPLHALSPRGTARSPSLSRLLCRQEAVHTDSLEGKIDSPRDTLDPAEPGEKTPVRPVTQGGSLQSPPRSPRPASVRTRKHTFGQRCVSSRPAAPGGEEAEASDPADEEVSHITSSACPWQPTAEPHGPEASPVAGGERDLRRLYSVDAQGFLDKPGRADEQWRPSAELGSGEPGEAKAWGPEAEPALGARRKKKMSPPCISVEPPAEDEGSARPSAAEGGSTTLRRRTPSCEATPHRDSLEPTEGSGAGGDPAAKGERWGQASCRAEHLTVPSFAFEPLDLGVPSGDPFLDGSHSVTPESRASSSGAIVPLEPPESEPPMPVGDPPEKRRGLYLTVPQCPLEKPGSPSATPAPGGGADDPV
T2 sequence (Q9Y2T6 whole entry): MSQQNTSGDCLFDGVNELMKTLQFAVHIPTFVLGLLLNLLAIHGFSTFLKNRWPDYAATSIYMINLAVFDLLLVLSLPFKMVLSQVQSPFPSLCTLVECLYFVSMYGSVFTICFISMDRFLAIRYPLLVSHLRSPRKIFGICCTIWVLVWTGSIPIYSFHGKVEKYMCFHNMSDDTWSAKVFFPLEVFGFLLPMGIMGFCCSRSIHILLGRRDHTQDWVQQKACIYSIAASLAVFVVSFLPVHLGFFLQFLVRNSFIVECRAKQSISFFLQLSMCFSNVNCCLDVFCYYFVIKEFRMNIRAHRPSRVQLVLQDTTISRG
Sequence of Glyceraldehyde-3-phosphate dehydrogenase (P04406 whole entry): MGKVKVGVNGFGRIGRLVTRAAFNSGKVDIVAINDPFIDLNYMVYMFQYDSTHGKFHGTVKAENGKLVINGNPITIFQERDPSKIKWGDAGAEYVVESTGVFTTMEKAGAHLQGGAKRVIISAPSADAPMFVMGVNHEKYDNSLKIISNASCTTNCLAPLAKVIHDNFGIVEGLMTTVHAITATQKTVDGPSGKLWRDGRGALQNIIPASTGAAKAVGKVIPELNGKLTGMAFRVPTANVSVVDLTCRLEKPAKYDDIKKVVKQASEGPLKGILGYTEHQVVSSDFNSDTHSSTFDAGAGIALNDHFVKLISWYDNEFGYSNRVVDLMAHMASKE
Sequence of Cytochrome P450 2D6 (P10635 whole entry): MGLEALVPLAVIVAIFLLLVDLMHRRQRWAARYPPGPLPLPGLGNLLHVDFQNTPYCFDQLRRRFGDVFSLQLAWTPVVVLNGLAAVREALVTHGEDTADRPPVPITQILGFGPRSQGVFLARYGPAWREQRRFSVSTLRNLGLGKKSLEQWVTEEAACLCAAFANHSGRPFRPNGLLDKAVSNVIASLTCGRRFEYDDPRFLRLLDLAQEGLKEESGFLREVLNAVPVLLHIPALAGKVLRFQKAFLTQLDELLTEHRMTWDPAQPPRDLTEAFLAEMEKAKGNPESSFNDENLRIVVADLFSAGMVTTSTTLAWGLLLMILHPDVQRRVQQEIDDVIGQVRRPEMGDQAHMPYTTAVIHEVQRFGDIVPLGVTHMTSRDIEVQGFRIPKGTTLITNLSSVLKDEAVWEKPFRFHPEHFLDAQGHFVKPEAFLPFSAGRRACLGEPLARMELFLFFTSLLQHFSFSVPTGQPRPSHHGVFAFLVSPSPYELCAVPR
Sequence of Beta-galactosidase (Q8VNN2 whole entry): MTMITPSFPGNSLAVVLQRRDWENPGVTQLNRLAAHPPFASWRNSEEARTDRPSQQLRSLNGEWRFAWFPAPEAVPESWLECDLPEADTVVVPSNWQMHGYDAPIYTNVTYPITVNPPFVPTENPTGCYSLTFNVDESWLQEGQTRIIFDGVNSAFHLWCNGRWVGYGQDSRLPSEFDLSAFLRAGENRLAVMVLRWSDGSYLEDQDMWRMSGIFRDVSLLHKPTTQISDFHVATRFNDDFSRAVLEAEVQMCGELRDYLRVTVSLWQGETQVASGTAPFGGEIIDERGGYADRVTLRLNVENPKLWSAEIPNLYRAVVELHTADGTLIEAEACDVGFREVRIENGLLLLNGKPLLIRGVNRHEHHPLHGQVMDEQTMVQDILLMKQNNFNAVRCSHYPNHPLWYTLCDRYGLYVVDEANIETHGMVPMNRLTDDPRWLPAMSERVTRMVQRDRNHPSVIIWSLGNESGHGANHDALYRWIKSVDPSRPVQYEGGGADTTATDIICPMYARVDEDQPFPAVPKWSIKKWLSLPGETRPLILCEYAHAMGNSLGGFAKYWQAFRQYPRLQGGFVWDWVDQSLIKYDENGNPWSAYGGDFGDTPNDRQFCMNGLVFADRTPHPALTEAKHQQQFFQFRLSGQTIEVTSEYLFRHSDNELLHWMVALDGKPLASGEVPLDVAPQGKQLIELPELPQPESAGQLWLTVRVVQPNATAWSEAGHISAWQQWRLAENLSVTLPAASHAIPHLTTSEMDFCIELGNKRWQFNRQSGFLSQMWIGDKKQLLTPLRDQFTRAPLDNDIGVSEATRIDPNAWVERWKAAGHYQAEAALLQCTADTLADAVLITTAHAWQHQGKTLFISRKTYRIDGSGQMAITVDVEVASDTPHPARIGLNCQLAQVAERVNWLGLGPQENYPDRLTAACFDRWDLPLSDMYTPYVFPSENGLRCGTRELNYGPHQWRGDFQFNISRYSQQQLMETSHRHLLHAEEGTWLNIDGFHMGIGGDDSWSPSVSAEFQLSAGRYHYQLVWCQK

With `Cc1ccc(C(=O)/C=C\C(=O)c2ccc(C)cc2)cc1` as the molecule, how does the EC50 [1] read?
Its EC50 is 1.97 µM (active).

And the EC50 [2]?
The EC50 was > 60 µM (not active).

What about the IC50 (Saccharomyces cerevisiae) of the same molecule?
Its IC50 is 6.51 µM (active).

What about the IC50 [3] of the same molecule?
The IC50 was 8.75 µM (active).

What does the source list for `Cc1nn2c(O)c3c(nc2c1-c1cccc2ccccc12)CCC3`?
EC50 [4]: 8.52 µM (active); Ki (fMet-Leu-Phe receptor): 53.7 µM (inactive); AC50 (Cytochrome P450 2D6): 35.5 µM (inconclusive); AC50 (Cytochrome P450 1A2): 25.1 µM (inconclusive)

With `O=C(O)c1cccc(N2C(=O)c3ccc4c5c(ccc(c35)C2=O)CC4)c1` as the molecule, how does the IC50 [5] read?
The IC50 was > 100 µM (not active).

For `Cc1ccc(CNC(=O)C(=O)NCC2OCCN2S(=O)(=O)c2ccc3c(c2)OCCO3)cc1` (centres undefined), which EC50 [6] is on record?
The EC50 was 4.92 µM (active).

For `CCCn1c(NCc2cc(OC)ccc2OC)nc2ccccc21`, which EC50 [6] is on record?
Its EC50 is 5.97 µM (active).

For `Cc1ccc(C(=O)N(c2ccccc2)C2CC(C)N(C(=O)c3ccco3)c3ccccc32)cc1` (centres undefined), which IC50 [7] is on record?
Its IC50 is 2.41 µM (active).

With `Cn1cccc1Cc1nnc(SCC(=O)Nc2cccc(Cl)c2)n1-c1ccc(F)cc1` as the molecule, how does the EC50 [6] read?
The EC50 was 1.24 µM (active).

For `CCc1ccc(C(=O)NCc2ccc(Cl)cc2Cl)cc1`, which IC50 (Saccharomyces cerevisiae) is on record?
Its IC50 is 61 µM (active).

What about the IC50 [3] of the same molecule?
The IC50 was 33.9 µM (active).

Which results are given for `CC(=O)Nc1cccc(Oc2ncnc3scc(-c4ccc(C(C)C)cc4)c23)c1`?
EC50 [8]: 21.7 µM (active); EC50 (BJ [9]): 42.6 µM (active); EC50 [10]: > 120 µM (not active); EC50 [11]: 18.2 µM (active); EC50 (BJ [12]): 61.5 µM (active); EC50 (BJ [13]): > 150 µM (inconclusive); EC50 [14]: 31.3 µM (active); EC50 [4]: 6.01 µM (active); IC50 (Vero [15]): 17.7 µM (active); CC50 (Vero [16]): > 25 µM (active)

For `COc1ccccc1NC(=O)Cc1nnc(SCC(=O)Nc2nccs2)n1C`, which AC50 (CAAX prenyl protease 2) is on record?
Its AC50 is 21.1 µM (active).

What does the source list for `Cc1ccc(-c2c(C(=O)N/N=C/c3cccc(Cl)c3)nnn2-c2nonc2N)cc1`?
EC50 (Beta-galactosidase): > 40 µM (inactive); IC50 [17]: > 40 µM (not active); AC50 (CAAX prenyl protease 2): 1.44 µM (active)

From ChEMBL document CHEMBL1201862, “PubChem BioAssay data set” (2004)
